Laboratory results reported in patent US9526681B2, “Compositions and methods for treating dental caries” (Colgate-Palmolive Company, priority 2012, dated 2016).

Tested on: salivary sediment (oral cavity bacteria)
Assay: Ammonia production by salivary sediment incubated with sucrose (diagnostic ammonia assay kit)
Type: cell-based
Conditions: 0.1% sucrose, 37 degrees Celsius, 30 minutes; for ammonia production, Mean: mean of three trials
Description: In order to investigate the effects of arginine alone, mixtures of arginine and bisabolol and bisabolol alone, on the production of ammonia in the present or oral bacterium the following procedures are carried out. Stimulated whole saliva is collected on ice and centrifuged for 15 minutes at 4000 rpm to obtain a pellet and salivary supernatant. The pellet, which is termed the salivary sediment, contains a representative array of the oral microbes found in the oral cavity. This pellet is washed twice in cold filter sterilized deionized water by centrifugation for 10 minutes at 4000 rpm.
The salivary sediment is then diluted to 50% with cold filter sterilized deionized water. Stock solutions of 1% arginine and 1% sucrose in filter sterilized deionized water are made, and a stock solution of 1% bisabolol in ethanol is also made. Reaction mixtures tested contain 16.7% final concentration salivary sediment, 0.1% final concentration sucrose and 0.0871% final concentration arginine. The control reaction mixture contains only salivary sediment, sucrose and arginine in the salivary supernatant base. The test solutions have a final concentration of 0.05 and 0.1 bisabolol, respectively. The reaction mixtures are then incubated at 37 degrees Celsius for 30 minutes with mild agitation before determining ammonia production. A standard diagnostic ammonia assay kit is used to quantify ammonia produced.
Table 1 (below) describes the results of the procedures described above, wherein the ammonia production is measured in terms of nanomole per milligram (nm/mg).
Column A in Table 1 describes data collected for three trials of L-arginine (Control) reaction mixtures that contain salivary sediment and salivary supernatant with final concentrations of 0.1% sucrose and 0.0871% L-arginine. Column B in Table 1 describes data collected for three trials of 0.05% bisabolol plus arginine reaction mixtures that contain salivary sediment and salivary supernatant with final concentrations of 0.1% sucrose, 0.05% bisabolol and 0.0871% L-arginine. Column C in Table 1 describes data collected for three trials of 0.05% bisabolol reaction mixtures that contain salivary sediment and salivary supernatant with final concentrations of 0.1% sucrose and 0.05% bisabolol. Column D in Table 1 describes data collected for three trials of 0.1% bisabolol plus arginine reaction mixtures that contain salivary sediment and salivary supernatant with final concentrations of 0.1% sucrose, 0.1% Bisabolol and 0.0871% L-arginine. Column E in Table 1 describes data collected for three trials of 0.1% bisabolol reaction mixtures that contain salivary sediment and salivary supernatant with final concentrations of 0.1% sucrose and 0.1% bisabolol.

[1] = 0.0871% L-arginine, no bisabolol, 16.7% salivary sediment
[2] = 0.05% bisabolol (with 0.0871% L-arginine in the combination), salivary sediment
[3] = 0.1% bisabolol (with 0.0871% L-arginine in the combination), salivary sediment

## N=C(N)NCCC[C@H](N)C(=O)O [Arginine, L-arginine, reference compound]
[1]
  ammonia production, Trial 1: 1532.40 nm/mg
  ammonia production, Trial 2: 1799.88 nm/mg
  ammonia production, Trial 3: 986.31 nm/mg
  ammonia production, Mean: 1439.53 nm/mg

## CC(C)=CCC[C@](C)(O)C1CC=C(C)CC1 (stereo partly drawn) [Bisabolol, bisabolol]
[2]
  ammonia production, Trial 1: 200.61 nm/mg
  ammonia production, Trial 2: 27.86 nm/mg
  ammonia production, Trial 3: 66.87 nm/mg
  ammonia production, Mean: 98.45 nm/mg
[3]
  ammonia production, Trial 1: 133.74 nm/mg
  ammonia production, Trial 2: 562.81 nm/mg
  ammonia production, Trial 3: 228.47 nm/mg
  ammonia production, Mean: 308.34 nm/mg
